In patent US20140024716A1, “Composition Comprising S-Allyl-L-Cysteine as Active Ingredient for Preventing or Treating Gastrointestinal Disorders” (PHARMAKING CO., LTD., priority 2009, published 2014):
Entries after “also recorded” stand apart in the source; their conditions may differ. Where two headings read alike, the source gives them in different places.

Key:
Helicobacter pylori [1] = assay: Serologic parameters (GOT, GPT) in Helicobacter pylori-infected mouse model; type: in vivo, C57BL/6 mice; conditions: SAC1 and SAC2 groups
Protocol: (§1) 8-week old male C57BL/6 mice were classified into 4 groups, i.e., a positive control group (to which Helicobacter pylori was administered; PC), a negative control group (to which saline was administered; NC), experimental group 1 (to which Helicobacter pylori and 200 mg/kg of SAC were administered; SAC1), and experimental group 2 (to which Helicobacter pylori and 400 mg/kg of SAC were administered; SAC2). Each group had 10 mice. White powdered SAC was diluted in tap water to concentrations of 20 mg/mL and 40 mg/mL and 10 μl/g (body weight) of the diluted SAC was orally administered to the mice of the SAC1 and SAC2 groups three times a week for 10 weeks. The mice were given free access to tap water for the entire test period. The Helicobacter pylori was collected with saline to a concentration of 1×10^9 CFU/mL, and 0.2 mL of the diluted Helicobacter pylori was orally administered to each mouse for 8 weeks from 2 weeks after SAC administration. The mice were fasted for 8 hours before the infection, and 0.15 mL of 0.2 M sodium bicarbonate (NaHCO3) was administered to each mouse 10 minutes before the administration of Helicobacter pylori in order to neutralize acidified stomach due to the fasting. The same amount of saline instead of the infectious substances was administered into the NC group. The mice of all groups were fed with a normal diet. […]

[2] = parameters: species or system C57BL/6 mice; conditions: mouse, in vivo
Protocol: S-allyl-L-Cysteine (SAC) was purchased from TCI Chemical Co. (Tokyo, Japan). Helicobacter pylori was American Type Culture Collection (ATCC) 43504 (cagA+, vacA s1-ml type) and cultured in a Mueller Hinton-Agar broth at 37° C. for 48 hours, under 5% CO2 microaerophilic conditions with a concentration of 1×10^9 CFU/ml.
8-week old male specific pathogen free (SPF) C57BL/6 mice were used. Weights of the mice were measured in the Animal Lab, Department of Pathology, the College of Veterinary Medicine, Kyungbook National University. Then, the mice were classified into 4 groups and bred such that average weights of each group are similar to each other. The mice were acclimated and bred in the Animal Lab, Department of Pathology, the College of Veterinary Medicine, Kyungbook National University at a temperature of 22±3° C., at a relative humidity of 50±10%, with light for 12 hours (light turned on at 08:00 and light turned off at 20:00) by an automatic temperature and humidity control system. Other environments for breeding which might influence the test for the entire test period were not considered for use. […]
Weights of male C57BL/6 mice infected with Helicobacter pylori ere measured three times a week for the entire 10-week test period to observe weight changes of the mice.

Helicobacter pylori [3] = assay: Histological change of stomach caused by Helicobacter pylori (H&E staining); type: in vivo, C57BL/6 mice
Protocol: as §1, with “diet. After a 10-week test period, autopsies were performed on all mice, and samples of blood and internal organs were collected for tissue pathological analyses.” for “diet.”
A stomach sample was fixed with 10% formalin and a paraffin block was formed. […] In addition, the number of eosinophils was checked from a region where the esophagus and stomach join and counted from three regions of the stomach, i.e., cardia, gastric pit, and gastric crypt of lamina propria. The number of mitotic figures was counted from two regions selected from the entire antrum from cardia to pylorus. Thus two samples were obtained from each animal and evaluated with a 400× magnification, and an average value of each group was calculated.

C=CCSC[C@H](N)C(=O)O [SAC, S-allyl-L-cysteine]
serum GPT level versus PC group (Helicobacter pylori [1]; not significantly different): less than that of the PC group; also recorded: less than the positive control group | serum GOT level versus PC group (Helicobacter pylori [1]; not significantly different (p<0.08)): less than that of the PC group; also recorded: less than the positive control group | weight increase rate less than the PC group by ([2]; 200 mg/kg): 2% | weight increase rate less than the PC group by ([2]; 400 mg/kg): 0.2% | number of eosinophils in stomach versus PC group (Helicobacter pylori [3]; SAC1 and SAC2 groups (200 and 400 mg/kg SAC)): significantly reduced; also recorded: less than that of the PC group | number of eosinophils in stomach versus PC group (Helicobacter pylori [3]; SAC1 group (200 mg/kg SAC), p<0.05): significantly less than that of the PC group | number of mitotic figures (Helicobacter pylori [3]; SAC2 group (400 mg/kg SAC)): slightly reduced
